Columns and labels:
Rattus norvegicus = species: Rattus norvegicus; assay: Drug metabolism in rat assessed as formation of (+)-2-(4-(benzo[b]thiophen-5-yl)-2-methyl-1,2,3,4-tetrahydroisoquinolin-7-ylamino)ethanol; format: ADME, organism-based; settings: in vivo
[1] = Clearance in Sprague-Dawley rat at 10 mg/kg, po and 1 mg/kg, iv; format: ADME, organism-based; settings: in vivo
[2] = Ratio of drug uptake in brain to plasma of Sprague-Dawley rat at 10 mg/kg, po measured after 1 hr; format: ADME, organism-based; set-up: dose 10 mg/kg, route oral; settings: read-out: BPR
Liver microsome [3] = assay: Drug metabolism in rat liver microsomes assessed as formation of (+)-2-(4-(benzo[b]thiophen-5-yl)-2-methyl-1,2,3,4-tetrahydroisoquinolin-7-ylamino)ethanol; format: ADME
Liver microsome [4] = assay: Drug metabolism in human liver microsomes assessed as formation of (+)-2-(4-(benzo[b]thiophen-5-yl)-2-methyl-1,2,3,4-tetrahydroisoquinolin-7-ylamino)ethanol; format: ADME
[5] = Oral bioavailability in Sprague-Dawley rat at 10 mg/kg; format: ADME, organism-based; settings: in vivo
[6] = Oral bioavailability at steady state in cynomolgus monkey at 2 mg/kg; format: ADME, organism-based, Macaca fascicularis; settings: in vivo
[7] = Clearance in cynomolgus monkey at 2 mg/kg, po and 0.5 mg/kg, iv; format: ADME, organism-based, Macaca fascicularis; settings: in vivo
[8] = Volume of distribution at steady state in cynomolgus monkey at 2 mg/kg, po and 0.5 mg/kg, iv; format: ADME, organism-based, Macaca fascicularis; settings: in vivo, read-out: Vdss
[9] = Volume of distribution at steady state in Sprague-Dawley rat at 10 mg/kg, po and 1 mg/kg, iv; format: ADME, organism-based; settings: in vivo, read-out: Vdss

## CN1Cc2cc(N3CCOCC3)ccc2[C@@H](c2ccc3sccc3c2)C1
Rattus norvegicus
  Drug metabolism: metabolite_notdetected
[1]
  clearance: 47 mL/min/kg
[2]
  Kp at 1 h: 3
Liver microsome [3]
  Drug metabolism: metabolite_detected
Liver microsome [4]
  Drug metabolism: metabolite_detected
[5]
  bioavailability: 81%
[6]
  bioavailability: 39%
[7]
  clearance: 27 mL/min/kg
[8]
  Vd: 16 L/kg
[9]
  Vd: 14 L/kg

Reference: ChEMBL document CHEMBL3351632, “Design and synthesis of 4-heteroaryl 1,2,3,4-tetrahydroisoquinolines as triple reuptake inhibitors” (ACS Med Chem Lett, 2014)
